Assay results reported in patent US9114149B2, “[CU(thp)4]n[X]-n compounds for the treatment of a broad range of human solid tumors, including refractory tumors” (Universita Degli Studi Di Padova, priority 2011, dated 2015).
Where “and” joins values, the source holds several entries; their conditions need not be identical. Equal values may be shown once.

Experiments:
A2780 = assay: MTT cytotoxicity, A2780 (ovary); assay type: cell-based, human; conditions: MTT test, 72 hrs
Description: (§1) The in vitro antitumor activity of CP had been deeply evaluated in several human cancer cell lines by in vitro cytotoxicity assays. CP cytotoxicity has been detected in a large panel of human cell lines derived from a wide variety of solid tumors, including refractory tumors. In Table 1, the cytotoxicity parameters IC50 (that is the median growth inhibitory concentrations calculated from dose-survival curves via MTT test) are tabulated.
(§2) Cell lines representative of lung (H157, U1810, U1285, Calu-1), pancreas (MIA PaCa-2, BxPC-3, AsPC-1, Capan-1), liver (Huh-7, Hep 3B, SK-Hep-1), oesophagus (OE33, OE21), oesophagus/gastric cardia (OE19), stomach (BGC-823, AGS), colon (HCT-116, T84, COLO 205), breast (MDA-MB-231, SK-BR-3), cervix (CaSki, C-33 A) ovarian (A2780, SK-OV-3, IGROV1), prostate (LnCaP, PC-3) cancers along with melanoma (MEWO, G361, C-32), neuroblastoma (SH-SY5Y, SK-N-AS, IMR-32) and osteosarcoma (U-2 OS, MG-63) have been treated with increasing concentration of CP for 72 hrs.

MEWO = assay: MTT cytotoxicity, MEWO (skin); assay type: cell-based, human; conditions: MTT test, 72 hrs
Description: as §1, §2

U1285 = assay: MTT cytotoxicity, U1285 (lung); assay type: cell-based, human; conditions: MTT test, 72 hrs
Description: as §1, §2

C-33 A = assay: MTT cytotoxicity, C-33 A (cervix); assay type: cell-based, human; conditions: MTT test, 72 hrs
Description: as §1, §2

LNCap = assay: MTT cytotoxicity, LNCap (prostate); assay type: cell-based, human; conditions: MTT test, 72 hrs
Description: as §1, §2

AsPC-1 = assay: MTT cytotoxicity, AsPC-1 (pancreas); assay type: cell-based, human; conditions: MTT test, 72 hrs
Description: as §1, §2

SK-Hep-1 = assay: MTT cytotoxicity, SK-Hep-1 (liver); assay type: cell-based, human; conditions: MTT test, 72 hrs
Description: as §1, §2

SK-BR-3 = assay: MTT cytotoxicity, SK-BR-3 (breast); assay type: cell-based, human; conditions: MTT test, 72 hrs
Description: as §1, §2

MG-63 = assay: MTT cytotoxicity, MG-63 (bone); assay type: cell-based, human; conditions: MTT test, 72 hrs
Description: as §1, §2

[1] = system: human osteosarcoma cells sensitive (U-2 OS); assay: Cross resistance MTT test, U-2 OS (CDDP sensitive); assay type: cell-based; conditions: 72 h, probit analysis
BxPC-3 = assay: MTT cytotoxicity, BxPC-3 (pancreas); assay type: cell-based, human; conditions: MTT test, 72 hrs
Description: as §1, §2

IMR-32 = assay: MTT cytotoxicity, IMR-32 (brain); assay type: cell-based, human; conditions: MTT test, 72 hrs
SK-OV-3 = assay: MTT cytotoxicity, SK-OV-3 (ovary); assay type: cell-based, human; conditions: MTT test, 72 hrs
Description: as §1, §2

U-2 OS = assay: MTT cytotoxicity, U-2 OS (bone); assay type: cell-based, human; conditions: MTT test, 72 hrs
Description: as §1, §2

BGC-823 = assay: MTT cytotoxicity, BGC-823 (stomach); assay type: cell-based, human; conditions: MTT test, 72 hrs
Description: as §1, §2

OE33 = assay: MTT cytotoxicity, OE33 (oesophagus); assay type: cell-based, human; conditions: MTT test, 72 hrs
Description: as §1, §2

MIA PaCa-2 = assay: MTT cytotoxicity, MIA PaCa-2 (pancreas); assay type: cell-based, human; conditions: MTT test, 72 hrs
Description: as §1, §2

SK-N-AS = assay: MTT cytotoxicity, SK-N-AS (brain); assay type: cell-based, human; conditions: MTT test, 72 hrs
OE21 = assay: MTT cytotoxicity, OE21 (oesophagus); assay type: cell-based, human; conditions: MTT test, 72 hrs
Description: as §1, §2

HCT-116 = assay: MTT cytotoxicity, HCT-116 (colon); assay type: cell-based, human; conditions: MTT test, 72 hrs
Description: as §1, §2

IGROV1 = assay: MTT cytotoxicity, IGROV1 (ovary); assay type: cell-based, human; conditions: MTT test, 72 hrs
Description: as §1, §2

Hep 3B = assay: MTT cytotoxicity, Hep 3B (liver); assay type: cell-based, human; conditions: MTT test, 72 hrs
Description: as §1, §2

Huh-7 = assay: MTT cytotoxicity, Huh-7 (liver); assay type: cell-based, human; conditions: MTT test, 72 hrs
Description: as §1, §2

T84 = assay: MTT cytotoxicity, T84 (colon); assay type: cell-based, human; conditions: MTT test, 72 hrs
Description: as §1, §2

SH-SY5Y = assay: MTT cytotoxicity, SH-SY5Y (brain); assay type: cell-based, human; conditions: MTT test, 72 hrs
Capan-1 = assay: MTT cytotoxicity, Capan-1 (pancreas); assay type: cell-based, human; conditions: MTT test, 72 hrs
Description: as §1, §2

OE19 = assay: MTT cytotoxicity, OE19 (oesophagus/gastric cardia); assay type: cell-based, human; conditions: MTT test, 72 hrs
Description: as §1, §2

G361 = assay: MTT cytotoxicity, G361 (skin); assay type: cell-based, human; conditions: MTT test, 72 hrs
Description: as §1, §2

H157 = assay: MTT cytotoxicity, H157 (lung); assay type: cell-based, human; conditions: MTT test, 72 hrs
Description: as §1, §2

C-32 = assay: MTT cytotoxicity, C-32 (skin); assay type: cell-based, human; conditions: MTT test, 72 hrs
Description: as §1, §2

C57BL mice = assay: Maximum Tolerated Dose in C57BL mice; conditions: single ip administration, <20% weight loss and no animal death
[2] = system: human osteosarcoma cells resistant (U-2 OS/Pt) to CDDP; assay: Cross resistance MTT test, U-2 OS Pt (CDDP resistant); assay type: cell-based; conditions: for IC50: U-2 OS Pt (CDDP resistant), MTT test, 72 h, probit analysis
[3] = system: human ovarian adenocarcinoma cells sensitive (A2780); assay: Cross resistance MTT test, A2780 (CDDP sensitive); assay type: cell-based; conditions: 72 h, probit analysis
U1810 = assay: MTT cytotoxicity, U1810 (lung); assay type: cell-based, human; conditions: MTT test, 72 hrs
Description: as §1, §2

MDA-MB-231 = assay: MTT cytotoxicity, MDA-MB-231 (breast); assay type: cell-based, human; conditions: MTT test, 72 hrs
Description: as §1, §2

[4] = system: Lewis lung carcinoma (LLC); assay: Advanced-stage treatment (2) of LLC-bearing mice; assay type: in vivo, C57BL mice; conditions: advanced-stage (2); for Average tumor weight (mean ± S.D.): day 15; for Inhibition of tumor growth: day 15, referred to control
Protocol: Body weight was measured at day 1 and every two days from day 9 and was taken as a parameter of systemic toxicity. The X axis indicates the days after transplantation whereas the Y axis indicates the percentage of body weight changes. […] The error bars indicate the SD.
The complete disappearance of primary tumors in these mice was confirmed by dissection on day 15.
The in vivo antitumor activity of CP in LLC tumor model has been further investigated by means of other protocols, such as advanced-stage treatment (1), and advanced-stage treatment (2). For upstaged or advanced stage disease, LLC tumors were allowed to establish and grow to visible (advanced-stage treatment 1) and palpable (advanced-stage treatment 2) size before the start of chemotherapy. The results shown in Table 8 and 9, attested that CP was efficacious even at the lowest dose schedules.

Calu-1 = assay: MTT cytotoxicity, Calu-1 (lung); assay type: cell-based, human; conditions: MTT test, 72 hrs
Description: as §1, §2

[5] = 50 mg/kg ip days 9-11 then 30 mg/kg days 12-14

N.N.[Cl][Pt][Cl] [CDDP, cis-diamminodichloro platinum(II)]
IC50 (A2780): 1.25 ± 1.01 µM
IC50 (MEWO): 6.76 ± 1.47 µM
IC50 (U1285): 4.37 ± 1.06 µM
IC50 (C-33 A): 7.42 ± 1.98 µM
IC50 (LNCap): 1.08 ± 1.01 µM
IC50 (AsPC-1): 29.5 ± 1.57 µM
IC50 (SK-Hep-1): 27.1 ± 2.94 µM
IC50 (SK-BR-3): 5.12 ± 1.51 µM
IC50 (MG-63): 5.76 ± 1.01 µM
IC50 [1]: 5.9 ± 1.4 µM
IC50 (BxPC-3): 11.5 ± 2.51 µM
IC50 (IMR-32): 4.45 ± 0.98 µM
IC50 (SK-OV-3): 3.04 ± 0.95 µM
IC50 (U-2 OS): 5.15 ± 1.94 µM
IC50 (BGC-823): 3.21 ± 1 µM
IC50 (OE33): 6.87 ± 1.06 µM
IC50 (MIA PaCa-2): 25.9 ± 2.75 µM
IC50 (SK-N-AS): 18.1 ± 1.58 µM
IC50 (OE21): 3.76 ± 1.08 µM
IC50 (HCT-116): 8.26 ± 1.11 µM
IC50 (IGROV1): 6.01 ± 1.73 µM
IC50 (Hep 3B): 6.15 ± 1.48 µM
IC50 (Huh-7): 3.24 ± 0.96 µM
IC50 (T84): 7.67 ± 1.34 µM
IC50 (SH-SY5Y): 5.16 ± 1.23 µM
IC50 (Capan-1): 9.81 ± 1.38 µM
IC50 (OE19): 7.45 ± 1.37 µM
IC50 (G361): 1.32 ± 1.01 µM
IC50 (H157): 5.99 ± 2.71 µM
IC50 (C-32): 1.06 ± 0.98 µM
MTD (Maximum Tolerated Dose) (C57BL mice): 4.8 mg/kg
R.F. (Resistant factor) ([2]; IC50 resistant/parent line: U-2 OS Pt / U-2 OS): 2.5
IC50 [2]: 14.6 ± 1.3 µM
IC50 [3]: 2.43 ± 1.6 µM
IC50 (U1810): 3.24 ± 1.92 µM
IC50 (MDA-MB-231): 3.23 ± 1.56 µM
Average tumor weight (mean ± S.D.) ([4]; 1.5 mg/kg ip daily from day 9): 0.118 ± 0.10 g
Inhibition of tumor growth ([4]; 1.5 mg/kg ip daily from day 9, 1.5 mg/kg): 72% and 72.68%
IC50 (Calu-1): 9.65 ± 2.13 µM

F[P-](F)(F)(F)(F)F.OC[P+](CO)(CO)[Cu-3]([P+](CO)(CO)CO)([P+](CO)(CO)CO)[P+](CO)(CO)CO [CP, [Cu(thp)4][PF6]]
IC50 (A2780): 0.99 ± 0.42 µM
IC50 (MEWO): 1.13 ± 0.74 µM
IC50 (U1285): 0.87 ± 0.51 µM
IC50 (C-33 A): 3.26 ± 1.57 µM
IC50 (LNCap): 0.65 ± 0.87 µM
IC50 (AsPC-1): 1.55 ± 0.73 µM
IC50 (SK-Hep-1): 0.86 ± 0.75 µM
IC50 (SK-BR-3): 1.89 ± 0.99 µM
IC50 (MG-63): 1.43 ± 0.74 µM
IC50 [1]: 3.1 ± 1.1 µM
IC50 (BxPC-3): 1.34 ± 1.11 µM
IC50 (IMR-32): 0.72 ± 0.18 µM
IC50 (SK-OV-3): 0.88 ± 0.43 µM
IC50 (U-2 OS): 1.34 ± 0.92 µM
IC50 (BGC-823): 1.08 ± 0.66 µM
IC50 (OE33): 1.87 ± 0.59 µM
IC50 (MIA PaCa-2): 2.45 ± 0.97 µM
IC50 (SK-N-AS): 0.94 ± 0.75 µM
IC50 (OE21): 1.19 ± 0.72 µM
IC50 (HCT-116): 0.46 ± 0.07 µM
IC50 (IGROV1): 0.91 ± 0.94 µM
IC50 (Hep 3B): 0.67 ± 0.47 µM
IC50 (Huh-7): 0.76 ± 0.31 µM
IC50 (T84): 0.24 ± 0.04 µM
IC50 (SH-SY5Y): 0.66 ± 0.12 µM
IC50 (Capan-1): 2.43 ± 0.84 µM
IC50 (OE19): 1.66 ± 0.94 µM
IC50 (G361): 0.98 ± 0.12 µM
IC50 (H157): 1.51 ± 0.66 µM
IC50 (C-32): 0.56 ± 0.43 µM
MTD (Maximum Tolerated Dose) (C57BL mice): 25.6 mg/kg
IC50 [2]: 4.3 ± 1.1 µM
IC50 [3]: 1.8 ± 0.4 µM
IC50 (U1810): 0.76 ± 1.02 µM
IC50 (MDA-MB-231): 2.11 ± 1.23 µM
Average tumor weight (mean ± S.D.) [4, 5]: 0.024 ± 0.03 g
Inhibition of tumor growth [4, 5]: 94.44%
tumor regression (in words) ([4]; 50 mg/kg loading then 30 mg/kg maintenance, after the sixth administration): quite complete tumor regression
IC50 (Calu-1): 0.91 ± 0.45 µM
